Data set [1] concerns the target Aromatase (Homo sapiens, UniProt P11511). As to the kind of experiment: In vitro inhibition to cytochrome P450 19A1 assayed using human placental microsomes. More on the design: species or system Placenta.
The target of data set [2] is T1, Aromatase (Rattus norvegicus, UniProt P22443).
T1 sequence (P22443 whole entry): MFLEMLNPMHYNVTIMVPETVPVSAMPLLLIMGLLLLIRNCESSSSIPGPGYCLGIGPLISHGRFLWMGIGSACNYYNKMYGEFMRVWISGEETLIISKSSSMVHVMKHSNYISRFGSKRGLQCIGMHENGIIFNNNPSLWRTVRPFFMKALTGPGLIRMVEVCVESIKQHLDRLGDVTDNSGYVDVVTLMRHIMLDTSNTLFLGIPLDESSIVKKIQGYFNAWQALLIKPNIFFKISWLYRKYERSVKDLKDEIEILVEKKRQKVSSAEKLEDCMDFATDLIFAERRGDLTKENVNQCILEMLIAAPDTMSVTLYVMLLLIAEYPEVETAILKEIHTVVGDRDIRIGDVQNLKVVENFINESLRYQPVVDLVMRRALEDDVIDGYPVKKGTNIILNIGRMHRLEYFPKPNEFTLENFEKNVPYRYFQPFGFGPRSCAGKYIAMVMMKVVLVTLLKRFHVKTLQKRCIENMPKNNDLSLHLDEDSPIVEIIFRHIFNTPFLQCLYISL
The data set can be described thus: In vivo reduction in serum estradiol in PMSG-primed rats after 2 hr at 5 mg/kg oral dose. It counts as functional, organism-based. On the set-up: dose 5 mg/kg, route oral; scale not given: the % may be the effect or the level left.

Data set [3] deals with T1, Aromatase. The data set can be described thus: In vivo reduction in serum estradiol in PMSG-primed rats after 6 hr at 5 mg/kg oral dose. The format is functional, organism-based. More on the design: dose 5 mg/kg, route oral; scale not given: the % may be the effect or the level left.

Structures are written as SMILES. pIC50: −log10 of the molar value. Some results are limits rather than exact numbers.

This note sets out measurements from ChEMBL document CHEMBL1129479, “Structure-activity relationships of a new family of steroidal aromatase inhibitors. 1. Synthesis and evaluation of a series of analogs related to 19-[(methylthio)methyl]androstenedione (RU54115)” (J Med Chem, 1996).

Usually pIC50 stands for the negative decadic logarithm of the IC50, by convention in mol/L.

Regarding `C=CSCC[C@]12CCC(=O)C=C1CCC1C2=CC[C@]2(C)C(=O)CCC12` (stereo partly drawn), in data set [1], the negative-log IC50 (pIC50) is 7.30. The Control in data set [2] came to 25%; in data set [3], 24%.

`C[C@]12CC=C3C(CCC4=CC(=O)CC[C@@]43CC[Se]c3ccccc3)C1CCC2=O` (stereo partly drawn) had a pIC50 in data set [1] below 6.00.

As to `CSC(=O)C[C@]12CCC(=O)C=C1CCC1C2CC[C@]2(C)C(=O)CCC12` (stereo partly drawn), the negative logarithm of the IC50 (pIC50) in data set [1] is 7.38. Also, the Control in data set [2] was 37%; in data set [3], 49%.

In data set [1], `C[C@]12CC=C3C(CCC4=CC(=O)CC[C@@]43CCSCF)C1CCC2=O` (stereo partly drawn) gave a pIC50 of 7.30. The Control in data set [2] stood at 31%; in data set [3] it was 41%.

Regarding `CCSCC[C@]12CCC(=O)C=C1CCC1C2=CC[C@]2(C)C(=O)CCC12` (stereo partly drawn), the pIC50 in data set [1] was 6.06.

In data set [1], `C[C@]12CC=C3C(CCC4=CC(=O)CC[C@@]43CCSCCS)C1CCC2=O` (stereo partly drawn) showed a negative logarithm of the IC50 (pIC50) below 6.00.

`CS[C@]12CCC(=O)C=C1CCC1C2=CC[C@]2(C)C(=O)CCC12` (stereo partly drawn) gave a pIC50 in data set [1] of 5.13.

In turn, `C[C@]12CC=C3C(CCC4=CC(=O)CC[C@@]43CCSSc3ccc([N+](=O)[O-])cc3[N+](=O)[O-])C1CCC2=O` (stereo partly drawn) had a negative logarithm of the IC50 (pIC50) in data set [1] below 6.00. For the same compound, the figures for the Control in data set [2] and in data set [3] were 27% and 32%, respectively.

In data set [1], `COCC[C@]12CCC(=O)C=C1CCC1C2=CC[C@]2(C)C(=O)CCC12` (stereo partly drawn) showed a pIC50 of 5.00.

`CN(C)CC[C@]12CCC(=O)C=C1CCC1C2=CC[C@]2(C)C(=O)CCC12` (stereo partly drawn) gave a pIC50 in data set [1] below 5.00.

Regarding `C[C@]12CC=C3C(CCC4=CC(=O)CC[C@@]43CCSC#N)C1CCC2=O` (stereo partly drawn), in data set [1], the pIC50 is below 6.00. Besides, the Control in data set [2] stood at 44%; in data set [3] it was 38%.

In data set [1], `C[C@]12CC=C3C(CCC4=CC(=O)CC[C@@]43CCI)C1CCC2=O` (stereo partly drawn) showed a pIC50 below 5.00.

Compound `C[C@]12CC=C3C(CCC4=CC(=O)CC[C@@]43CCSC3CC3)C1CCC2=O` (stereo partly drawn) gave a pIC50 in data set [1] below 6.00.

Consider `C[C@]12CC=C3C(CCC4=CC(=O)CC[C@@]43CCSC(F)F)C1CCC2=O` (stereo partly drawn), for which, in data set [1], the negative logarithm of the IC50 (pIC50) is below 6.00.

With `CCSC(C[C@]12CCC(=O)C=C1CCC1C2=CC[C@]2(C)C(=O)CCC12)SCC` (stereo partly drawn), in data set [1], the pIC50 is below 6.00.

Take `CSCC[C@]12CCC(=O)C=C1CCC1C2=CC[C@]2(C)C(=O)CCC12` (stereo partly drawn): the negative-log IC50 (pIC50) in data set [1] is 7.92. Further, the Control stood at 51% in data set [2] and 50% in data set [3].

On to `C[C@]12CC=C3C(CCC4=CC(=O)CC[C@@]43CCSSc3ccccc3)C1CCC2=O` (stereo partly drawn), for which the pIC50 in data set [1] was below 6.00. The values for the Control in data set [2] and in data set [3] were 43% and 62%, respectively.

In data set [1], `CC(=O)SCC[C@]12CCC(=O)C=C1CCC1C2=CC[C@]2(C)C(=O)CCC12` (stereo partly drawn) gave a pIC50 below 5.00. The Control in data set [2] was 21%; in data set [3] it was 10%.

With `C[C@]12CC=C3C(CCC4=CC(=O)CC[C@@]43CCSc3ccccc3)C1CCC2=O` (stereo partly drawn), the pIC50 in data set [1] is 6.40.

`CSCC[C@]12CCC(=O)C=C1CCC1C2CC[C@]2(C)C(=O)CCC12` (stereo partly drawn) had a negative logarithm of the IC50 (pIC50) in data set [1] of 7.66. The Control in data set [2] stood at 11%; in data set [3], 16%.

In turn, `C#CSCC[C@]12CCC(=O)C=C1CCC1C2=CC[C@]2(C)C(=O)CCC12` (stereo partly drawn) gave a pIC50 in data set [1] of 6.48.

Turning to `CSC(C[C@]12CCC(=O)C=C1CCC1C2=CC[C@]2(C)C(=O)CCC12)SC` (stereo partly drawn), the pIC50 in data set [1] was below 6.00. Besides, the Control came to 18% in data set [2] and 13% in data set [3].

Consider `C=CCSCC[C@]12CCC(=O)C=C1CCC1C2=CC[C@]2(C)C(=O)CCC12` (stereo partly drawn), for which the pIC50 in data set [1] is 6.57.

`CSSCC[C@]12CCC(=O)C=C1CCC1C2=CC[C@]2(C)C(=O)CCC12` (stereo partly drawn): in data set [1], the pIC50 was below 6.00. In addition, the results for the Control in data set [2] and in data set [3] were 7% and 23%, respectively.

For the compound `CSCSCC[C@]12CCC(=O)C=C1CCC1C2=CC[C@]2(C)C(=O)CCC12` (stereo partly drawn), the negative logarithm of the IC50 (pIC50) in data set [1] was 6.24.

In the case of `C[C@]12CC=C3C(CCC4=CC(=O)CC[C@@]43CCSCCO)C1CCC2=O` (stereo partly drawn), in data set [1], the negative-log IC50 (pIC50) was below 6.00.

`C#CCSCC[C@]12CCC(=O)C=C1CCC1C2=CC[C@]2(C)C(=O)CCC12` (stereo partly drawn) showed a pIC50 in data set [1] of 6.00. The figures for the Control in data set [2] and in data set [3] were 5% and 25%, respectively.

For the compound `C[C@]12CC=C3C(CCC4=CC(=O)CC[C@@]43CCOS(C)(=O)=O)C1CCC2=O` (stereo partly drawn), the pIC50 in data set [1] is below 5.00.

The compound `CSCCCC12CCC(=O)C=C1CCC1C2=CC[C@]2(C)C(=O)CCC12` (single isomer, unassigned) gave a negative logarithm of the IC50 (pIC50) in data set [1] below 5.00.
